Laboratory results as given in patent publication US7494714B2, “Surfaces that resist the adsorption of biological species” (President & Fellows of Harvard College, priority 2000, dated 2009).
Where two headings read alike, the source gives them in different places. Where a SMILES comes first, the peptide text is derived from it. [ ]: non-standard residue; d: D form. Sar = CNCC(=O)O

How the values were obtained:
[1] = target: lysozyme (Gallus gallus, UniProt P00698); test: SPR adsorption of lysozyme to SAMs / grafted polymer films; type: binding; settings: for % ML 3 min / dR/dt on: lysozyme
[2] = target: T1, fibrinogen (Bos taurus, UniProt P02672+P02676+P12799); test: SPR adsorption of fibrinogen to SAMs / grafted polymer films; type: binding, bovine; settings: for % ML 30 min / dR/dt on / % ML 3 min: fibrinogen; for % ML 3 min: single-component SAMs (a, RSH) and mixed SAMs (b, RNH2)
T1 sequence (P02672 20-615): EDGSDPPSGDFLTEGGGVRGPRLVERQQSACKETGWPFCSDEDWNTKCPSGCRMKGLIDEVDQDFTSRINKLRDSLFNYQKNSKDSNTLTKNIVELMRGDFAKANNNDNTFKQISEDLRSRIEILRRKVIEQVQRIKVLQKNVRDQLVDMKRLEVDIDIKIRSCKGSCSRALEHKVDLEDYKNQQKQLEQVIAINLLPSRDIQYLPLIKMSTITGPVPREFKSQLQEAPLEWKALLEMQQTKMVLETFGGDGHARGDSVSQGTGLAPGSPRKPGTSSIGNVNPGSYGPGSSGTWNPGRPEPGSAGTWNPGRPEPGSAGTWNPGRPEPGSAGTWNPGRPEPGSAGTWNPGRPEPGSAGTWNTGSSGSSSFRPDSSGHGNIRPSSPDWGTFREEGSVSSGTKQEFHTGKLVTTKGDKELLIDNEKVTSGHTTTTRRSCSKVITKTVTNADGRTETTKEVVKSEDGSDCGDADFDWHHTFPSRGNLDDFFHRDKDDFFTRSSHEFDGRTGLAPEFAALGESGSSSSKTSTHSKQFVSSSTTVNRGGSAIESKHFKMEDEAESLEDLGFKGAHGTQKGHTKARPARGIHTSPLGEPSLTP
T1 sequence (P02676 1-468): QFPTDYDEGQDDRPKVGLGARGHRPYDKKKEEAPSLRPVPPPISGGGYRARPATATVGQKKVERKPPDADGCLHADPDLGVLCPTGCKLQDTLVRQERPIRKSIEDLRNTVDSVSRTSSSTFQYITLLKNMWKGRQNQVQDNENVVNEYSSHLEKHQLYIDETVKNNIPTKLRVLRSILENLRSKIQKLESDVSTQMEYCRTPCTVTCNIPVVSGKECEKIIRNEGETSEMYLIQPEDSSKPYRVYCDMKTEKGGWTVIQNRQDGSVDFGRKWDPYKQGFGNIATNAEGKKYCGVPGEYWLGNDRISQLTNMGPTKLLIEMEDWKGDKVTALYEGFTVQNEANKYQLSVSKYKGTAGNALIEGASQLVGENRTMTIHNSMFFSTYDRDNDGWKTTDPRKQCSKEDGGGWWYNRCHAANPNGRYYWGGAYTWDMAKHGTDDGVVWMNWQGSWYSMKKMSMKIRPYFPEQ
T1 sequence (P12799 25-444): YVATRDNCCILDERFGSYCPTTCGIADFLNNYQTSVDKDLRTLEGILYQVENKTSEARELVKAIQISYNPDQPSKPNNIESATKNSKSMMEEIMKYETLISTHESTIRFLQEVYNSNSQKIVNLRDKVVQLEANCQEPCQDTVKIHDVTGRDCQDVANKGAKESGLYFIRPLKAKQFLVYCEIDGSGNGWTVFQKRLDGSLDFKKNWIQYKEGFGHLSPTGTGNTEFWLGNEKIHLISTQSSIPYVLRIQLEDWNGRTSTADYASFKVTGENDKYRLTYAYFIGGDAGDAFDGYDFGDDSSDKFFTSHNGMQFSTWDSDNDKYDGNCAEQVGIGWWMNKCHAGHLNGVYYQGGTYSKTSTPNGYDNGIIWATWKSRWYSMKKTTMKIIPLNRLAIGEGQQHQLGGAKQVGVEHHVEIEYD

[3] = footnote b (30 minutes), single-component SAMs (a) and mixed SAMs (b)
[4] = single-component SAMs (a) and mixed SAMs (b)
[5] = mixed SAM —CONRR′/—CO2H, 1 mg/mL lysozyme flowed 3 min
[6] = mixed SAM —CONRR′/—CO2H, 1 mg/mL lysozyme flowed 30 min
[7] = mixed SAM —CONRR′/—CO2H, 1 mg/mL fibrinogen flowed 3 min, relative to —CONH(CH2)10CH3/—CO2H SAM
[8] = mixed SAM —CONRR′/—CO2H, 1 mg/mL fibrinogen flowed 30 min

Chain of lysozyme (P00698 19-147): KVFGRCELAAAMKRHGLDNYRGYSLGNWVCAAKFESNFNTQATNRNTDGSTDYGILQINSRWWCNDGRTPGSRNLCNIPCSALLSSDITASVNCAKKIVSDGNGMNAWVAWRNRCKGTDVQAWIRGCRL

SMILES | dR/dton lysozyme (maximum initial rate of adsorption) ([1]; mixed SAM —CONRR′/—CO2H) | % MLlys 3 min [1, 5] | % MLlys 30 min [1, 6] | dR/dton fibrinogen (maximum initial rate of adsorption) ([2]; mixed SAM —CONRR′/—CO2H) | % MLfib 3 min [2, 7] | % MLfib 30 min [2, 8] | % Lysoff (percent decrease in adsorbed protein during 10 minute PBS wash) ([1]; mixed SAM —CONRR′/—CO2H) | % Fiboff (percent decrease in adsorbed protein during 10 minute PBS wash) ([2]; mixed SAM —CONRR′/—CO2H) | also measured
CC(=O)N1CCN(C(=O)CCCCCCCCCCCCCCCS)CC1 [Entry 2a] |  |  |  |  |  |  |  |  | % ML 3 min [1, 3]: 0.8 ±0.2%; % ML 3 min [1, 4]: 0.8 ±0.3%; dR/dt on [1, 4]: 100 ±10 RU/sec; % Lys off [1, 4]: 110 ±0%; % ML 30 min [2, 4]: 2.2 ±0.1%; dR/dt on [2, 4]: 22 ±10 RU/sec; % ML 3 min [2]: 0.7 ±0.0%; % Fib off [2, 4]: 6.8 ±5%
CNCC(=O)N(C)CC(=O)N(C)CC(=O)N(C)C [H(CH3)N(Sar)3N(CH3)2] (H-[Sar]-[Sar]-[Sar]-NMe2) | 70 ± 30 RU/sec | 0.6 ± 0.1% | 1.1 ± 0.3% | 60 ± 10 RU/sec | 0.7 ± 0.1% | 2.0 ± 0.1% |  |  | % ML 3 min [1, 3]: 1.1%; % ML 3 min [1, 4]: 0.6%; dR/dt on [1, 4]: 70 RU/sec; % ML 30 min [2, 4]: 2.0%; dR/dt on [2, 4]: 60 RU/sec; % ML 3 min [2]: 0.7%
C1COCCOCCOCCOCCOCCN1 | 100 ± 50 RU/sec | 2.1 ± 0.4% | 6.0 ± 0.5% | 45 ± 20 RU/sec | 3.8 ± 0.7% | 11 ± 0.3% | 72 ± 0.7% | 9.6 ± 0.9% | 
N[C@H]1C(O)O[C@H](CO)[C@@H](O)[C@@H]1O (stereo partly drawn) | 620 ± 280 RU/sec | 7.8 ± 0.2% | 25 ± 2.1% | 210 ± 120 RU/sec | 31 ± 0.7% | 55 ± 1.1% | 330 ± 0.2% | 11 ± 0.0% | 
OCCOCCOCCOCCCCCCCCCCCS [Entry 3a, HOEG3(CH2)11SH, reference compound] |  |  |  |  |  |  |  |  | % ML 3 min [1, 3]: 0.2%; % ML 3 min [1, 4]: 0.2%; % ML 30 min [2, 4]: 0.2%; % ML 3 min [2]: 0.2%
Nc1ccc(O[C@@H]2O[C@H](CO)[C@@H](O)[C@H](O)[C@H]2O)cc1 | 1200 ± 270 RU/sec | 27 ± 3.3% | 83 ± 2.3% | 1200 ± 270 RU/sec | 51 ± 1.8% | 67 ± 0.9% | 78 ± 1.7% | 38 ± 0.8% | 
CNCC(=O)N(C)CC(=O)N(C)CC(=O)N(C)CC(=O)N(C)CC(=O)N(C)C [H(CH3)N(Sar)5N(CH3)2] | 50 ± 20 RU/sec | 0.8 ± 0.7% | 1.0 ± 0.2% | 50 ± 10 RU/sec | 0.6 ± 0.3% | 1.3 ± 0.1% | 14 ± 4% |  | 
CNCC(=O)N(C)CC(=O)N(C)CC(=O)N(C)CC(=O)N(C)C [H(CH3)N(Sar)4N(CH3)2] (H-[Sar][Sar][Sar][Sar]-NMe2) | 80 ± 40 RU/sec | 0.8 ± 0.1% | 1.5 ± 0.7% | 70 ± 20 RU/sec | 0.5 ± 0.0% | 1.7 ± 0.2% | 70 ± 30% |  | 
CC(=O)NCCN | 530 ± 120 RU/sec | 1.4 ± 0.0% | 5.4 ± 0.3% | 50 ± 5 RU/sec | 14 ± 1% | 40 ± 2% | 580 ± 20% | 13 ± 1% | 
CNCCNC | 110 ± 60 RU/sec | 4.3 ± 0.1% | 7.8 ± 0.0% | 77 ± 30 RU/sec | 4.4 ± 0.8% | 8.5 ± 0.0% | 110 ± 5% | 7.5 ± 0.4% | 
OCCOCCN1CCNCC1 | 20 ± 2 RU/sec | 4.5 ± 0.0% | 27 ± 10% | 54 ± 10 RU/sec | 1.2 ± 0.1% | 3.7 ± 0.0% | 110 ± 5% | 1.8 ± 0.1% | 
CNC [HN(CH3)2] |  |  |  |  |  |  |  |  | % Lysoff (percent decrease in adsorbed protein during 10 minute PBS wash) [1]: 120 ± 1%; % MLlys 3 min [1]: 43 ± 16%; % MLlys 30 min [1]: 80 ± 3%; dR/dton lysozyme (maximum initial rate of adsorption) [1]: 2400 ± 260 RU/sec; % Fiboff (percent decrease in adsorbed protein during 10 minute PBS wash) [2]: 24 ± 0.1%; % MLfib 3 min [2]: 26 ± 6%; % MLfib 30 min [2]: 54 ± 0.8%; dR/dton fibrinogen (maximum initial rate of adsorption) [2]: 160 ± 30 RU/sec
N#CCCNCCC#N [HN(CH2CH2CN)2] | 2700 ± 160 RU/sec | 17 ± 1.0% | 40 ± 2.0% | 590 ± 240 RU/sec | 43 ± 1.0% | 58 ± 1.6% | 290 ± 8% | 20 ± 0.7% | 
